Test results reported in the supplement of paper PMC8671470.
Where a name gives a salt, the structure may show the parent alone. ± gives the standard deviation of the averaged measurements.

How the values were obtained:
Details in all cases: 72 h
HL-60 [1] = assay: area under dose-response curve (viability, 1 nM-10 uM) (fraction (0-1)); higher = more sensitive
How it was run: (§1)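 HL-60 cells in RPMI 1640 with 10% FBS were rescreened against the full library on 384-well plates at five tenfold concentrations, 1–10,000 nM, in duplicate. Each screen was run with DMSO or 100 nM of one of three metabolic inhibitors, for 72 h at 37 °C, 5% CO2. Viability was read by CellTiter-Glo and normalised to DMSO and 10 μM proteasome-inhibitor wells. Where given, area under the curve came from four-parameter log-logistic fits (drc, PharmacoGx).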

HL-60 [2] = assay: cell viability (% survival relative to DMSO control); higher = less cytotoxic
How it was run: as §1

LAMA-84 [3] = system: LAMA-84
How it was run: (§2)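 Fifteen myeloid leukaemia lines in RPMI 1640 were treated for 72 h at 37 °C and 5% CO2 with five tenfold doses from 1 to 10,000 nM, in duplicate. ATP luminescence was normalised to vehicle and to a positive control at 10 µM, then fitted with a four-parameter log-logistic model. The IC50 came from these fits.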

MOLM-13 [4] = system: MOLM-13
How it was run: as §2

K-562 [5] = system: K-562
How it was run: as §2

SHI-1 [6] = system: SHI-1
How it was run: as §2

HEL [7] = system: HEL
How it was run: as §2

MV4-11 [8] = system: MV4-11
How it was run: as §2

KCL-22 [9] = system: KCL-22
How it was run: as §2

NOMO-1 [10] = system: NOMO-1
How it was run: as §2

BV-173 [11] = system: BV-173
How it was run: as §2

Mono-Mac-6 [12] = system: Mono-Mac-6
How it was run: as §2

ML-2 [13] = system: ML-2
How it was run: as §2

KU-812 [14] = system: KU-812
How it was run: as §2

HL-60 [15] = system: HL-60
How it was run: as §2

KG-1 [16] = system: KG-1
How it was run: as §2

THP-1 [17] = system: THP-1
How it was run: as §2

[18] = system: myeloid leukemia patient primary cells Pat.12; assay: cell viability (% survival relative to DMSO control); higher = less cytotoxic
How it was run: (§3)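 Thawed mononuclear cells from AML or CML patients were purified on Ficoll and cultured for 72 h in RPMI 1640 with 10% FBS, at 10,000 cells/well, on 384-well plates carrying 70 pre-printed compounds at 1–10,000 nM in five tenfold steps, in duplicate. Viability came from CellTiter-Glo, normalised against DMSO and against 10 μM proteasome inhibitor. Any area under the curve given was derived from log-logistic curve fits in the drc and PharmacoGx R packages, and these fits had four parameters.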

[19] = system: myeloid leukemia patient primary cells Pat.3; assay: as above
How it was run: as §3

[20] = system: myeloid leukemia patient primary cells Pat.7; assay: as above
How it was run: as §3

[21] = system: myeloid leukemia patient primary cells Pat.15; assay: as above
How it was run: as §3

[22] = system: myeloid leukemia patient primary cells Pat.4; assay: as above
How it was run: as §3

[23] = system: myeloid leukemia patient primary cells Pat.10; assay: as above
How it was run: as §3

[24] = system: myeloid leukemia patient primary cells Pat.6; assay: as above
How it was run: as §3

[25] = system: myeloid leukemia patient primary cells Pat.8; assay: as above
How it was run: as §3

[26] = system: myeloid leukemia patient primary cells Pat.2; assay: as above
How it was run: as §3

[27] = system: myeloid leukemia patient primary cells Pat.13; assay: as above
How it was run: as §3

[28] = system: myeloid leukemia patient primary cells Pat.9; assay: as above
How it was run: as §3

[29] = system: myeloid leukemia patient primary cells Pat.14; assay: as above
How it was run: as §3

[30] = system: myeloid leukemia patient primary cells Pat.11; assay: as above
How it was run: as §3

[31] = system: myeloid leukemia patient primary cells Pat.5; assay: as above
How it was run: as §3

[32] = system: myeloid leukemia patient primary cells Pat.1; assay: as above
How it was run: as §3

[33] = system: myeloid leukemia patient primary cells Pat.12; assay: area under dose-response curve (viability, 1 nM-10 uM) (fraction (0-1)); higher = more sensitive
Experimental: (§4)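 AUC (0–1, higher = more sensitive) of the 5-point dose–response (1 nM–10 µM, 72 h, CellTiter-Glo) in primary AML/CML patient mononuclear cells. 0.030103 is the floor for inactive compounds.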

[34] = system: myeloid leukemia patient primary cells Pat.3; assay: as above
Experimental: as §4

[35] = system: myeloid leukemia patient primary cells Pat.7; assay: as above
Experimental: as §4

[36] = system: myeloid leukemia patient primary cells Pat.15; assay: as above
Experimental: as §4

[37] = system: myeloid leukemia patient primary cells Pat.4; assay: as above
Experimental: as §4

[38] = system: myeloid leukemia patient primary cells Pat.10; assay: as above
Experimental: as §4

[39] = system: myeloid leukemia patient primary cells Pat.6; assay: as above
Experimental: as §4

[40] = system: myeloid leukemia patient primary cells Pat.8; assay: as above
Experimental: as §4

[41] = system: myeloid leukemia patient primary cells Pat.2; assay: as above
Experimental: as §4

[42] = system: myeloid leukemia patient primary cells Pat.13; assay: as above
Experimental: as §4

[43] = system: myeloid leukemia patient primary cells Pat.9; assay: as above
Experimental: as §4

[44] = system: myeloid leukemia patient primary cells Pat.14; assay: as above
Experimental: as §4

[45] = system: myeloid leukemia patient primary cells Pat.11; assay: as above
Experimental: as §4

[46] = system: myeloid leukemia patient primary cells Pat.5; assay: as above
Experimental: as §4

[47] = system: myeloid leukemia patient primary cells Pat.1; assay: as above
Experimental: as §4

LAMA-84 [48] = assay: cell viability (% survival relative to DMSO control, bortezomib = 0%); higher = less cytotoxic
How it was run: (§5)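 Fifteen myeloid leukaemia cell lines (10 AML, 5 CML) were seeded at a density titrated to the linear growth range. They went into 384-well plates with compounds pre-printed at 1, 10, 100, 1000 or 10000 nM in duplicate. After 72 h at 37 °C with 5% CO2, viability was read by CellTiter-Glo luminescence. Values are percent survival, with vehicle set to 100% and a 10 µM positive control to 0%, averaged over the duplicates.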

MOLM-13 [49] = assay: as above
How it was run: as §5

K-562 [50] = assay: as above
How it was run: as §5

SHI-1 [51] = assay: as above
How it was run: as §5

HEL [52] = assay: as above
How it was run: as §5

MV4-11 [53] = assay: as above
How it was run: as §5

KCL-22 [54] = assay: as above
How it was run: as §5

NOMO-1 [55] = assay: as above
How it was run: as §5

BV-173 [56] = assay: as above
How it was run: as §5

Mono-Mac-6 [57] = assay: as above
How it was run: as §5

ML-2 [58] = assay: as above
How it was run: as §5

KU-812 [59] = assay: as above
How it was run: as §5

HL-60 [60] = assay: as above
How it was run: as §5

KG-1 [61] = assay: as above
How it was run: as §5

THP-1 [62] = assay: as above
How it was run: as §5

Cn1cc(-c2ccncc2)c(-c2ccc(OCc3ccc4ccccc4n3)cc2)n1
HL-60 [1]
Details	area under dose-response curve
co-treatment: AZD3965 100 nM	< 0.0301
co-treatment: DMSO vehicle	< 0.0301
co-treatment: GSK2194069 100 nM	0.05
co-treatment: pictilisib 100 nM	0.05

cell viability [%], HL-60 [2]
Details	0.001 µM	0.01 µM	0.1 µM	1 µM	10 µM
co-treatment: AZD3965 100 nM	94.1 ± 10	101 ± 4.6	101 ± 5.4	96.7 ± 2.9	103 ± 1.1
co-treatment: DMSO vehicle	99.1 ± 7.1	94.8 ± 5.4	102 ± 4.4	98.248 ± 0.0026	101 ± 3.4
co-treatment: GSK2194069 100 nM	103 ± 15	101 ± 7.9	107 ± 1.9	90.9 ± 7.4	81.8 ± 1.1
co-treatment: pictilisib 100 nM	98.7 ± 28	101 ± 11	114 ± 12	94.4 ± 5.6	107 ± 27

CCOC(=O)c1cncn1[C@H](C)c1ccccc1 [Etomidate]
Details	IC50 (cell viability) [µM]
BV-173 [11]	> 10
HEL [7]	> 10
HL-60 [15]	> 10
K-562 [5]	> 10
KCL-22 [9]	> 10
KG-1 [16]	> 10
KU-812 [14]	> 10
LAMA-84 [3]	> 10
ML-2 [13]	> 10
MOLM-13 [4]	> 10
MV4-11 [8]	> 10
Mono-Mac-6 [12]	> 10
NOMO-1 [10]	> 10
SHI-1 [6]	> 10
THP-1 [17]	> 10

CN(C)C(=O)n1nnnc1Cc1ccc(-c2ccccc2)cc1
cell viability [%]
Details	1 nM	10 nM	100 nM	1000 nM	10000 nM
[18]	94.7	91.7	90.7	93	41.2
[19]	> 100	64.8	82.7	30.3	2.63
[20]	> 100	38.7	73.7	24.8	13.2
[21]	94.8	96	96.2	89.5	29.8
[22]	97.2	81	84.8	> 100	2.63
[23]	96.5	75.2	> 100	20.7	15.5
[24]	> 100	70.8	97.7	> 100	21.8
[25]	99.4	97.5	71.9	85.5	4.49
[26]	97.7	78.6	> 100	99.1	37.3
[27]	84.1	60.2	92.1	87.3	7.43
[28]	64	5.6	60.2	9.03	0.492
[29]	97.8	63.7	95.5	32	0.671
[30]	> 100	87.4	91.7	93.6	22
[31]	60.8	1.18	63	1.33	2.24
[32]	98.5	74.4	89.4	87.9	4.27

Details	area under dose-response curve
[33]	0.044
[34]	0.278
[35]	0.331
[36]	0.0943
[37]	0.115
[38]	0.298
[39]	0.0748
[40]	0.132
[41]	0.0497
[42]	0.105
[43]	0.766
[44]	0.277
[45]	0.0778
[46]	0.798
[47]	0.124

Cc1cc(CS(=O)(=O)c2ccccc2)cc(OCc2ccc(CN3CCC[C@@H]3CO)cc2)c1 [PF-543 hydrochloride]
cell viability [%]
Details	1 nM	10 nM	100 nM	1000 nM	10000 nM
BV-173 [56]	83.7	103	152	87.8	56.7
HEL [52]	92	88.6	105	88.1	94
HL-60 [60]	118	92.2	119	83.7	79.8
K-562 [50]	90.4	113	131	91.1	40.4
KCL-22 [54]	91.5	94.5	122	82.5	84.9
KG-1 [61]	92.1	102	114	111	84.3
KU-812 [59]	97.5	91.6	97.7	101	61
LAMA-84 [48]	108	91.9	103	93.9	71.5
ML-2 [58]	89.8	97.3	130	91	88.5
MOLM-13 [49]	72.9	110	88.8	117	79.6
MV4-11 [53]	83.5	104	119	103	65.5
Mono-Mac-6 [57]	89.6	84.7	101	89.8	82.9
NOMO-1 [55]	89.2	94.9	103	101	93
SHI-1 [51]	82.3	109	100	84.8	87.9
THP-1 [62]	89.7	95.5	111	94.8	96.5

Details	IC50 (cell viability) [µM]
BV-173 [11]	8.45
HEL [7]	> 10
HL-60 [15]	> 10
K-562 [5]	4.85
KCL-22 [9]	> 10
KG-1 [16]	> 10
KU-812 [14]	> 10
LAMA-84 [3]	> 10
ML-2 [13]	> 10
MOLM-13 [4]	> 10
MV4-11 [8]	> 10
Mono-Mac-6 [12]	> 10
NOMO-1 [10]	> 10
SHI-1 [6]	> 10
THP-1 [17]	> 10
